Measurements as given in patent publication US20070275953A1 (priority 2003, published 2007).
Like-named read-outs stand apart in the source and are kept apart here.

How the values were obtained:
Format in all cases: cell-based
[1] = test system: HIV-1 with WT (wild type) RT in TZM-bl cells; assay: Anti-HIV assay on TZM-bl cell line, WT RT
Description: (§1) Wurzburg Jurkat T cells (subclone JR) were transfected with 10 μg of the circularly permuted infectious molecular clone HIVNL4-3 (Adachi et al., 1986. J. Virol, 59 (2), p 284-291). Two days later, co-cultivation with SupT1 cells (a human T-cell lymphoma cell line) was initiated to facilitate rapid production of progeny virions. Production of virus was measured by using the Innotest HIV Antigen mAb p24 kit (Innogenetics). At the peak of production cultures were harvested and filtered. The virus stocks were stored at −80° C. until used.
(§2) Anti-HIV activity and cytotoxicity of the compounds were tested on the TZM-b1 cell line. The TZM-b1 cell line (Wei et al. 2002. Antimicrob. Agents Chemother. Vol. 46, p 1896-1905) was received from the NIH AIDS Research and Reference Reagent Program. These cells were cultured in complete DMEM medium supplemented with 10% fetal bovine serum (FBS), and 1% Penicillin/Streptomycin. Exponentially growing cells were trypsinized, centrifuged and split twice weekly at 5 10^4 cells/ml.
(§3) The anti-HIV assay with TZM-b1 cells is essentially the same as described above with P4 cells. The main difference between the two cell lines is that the TZM-b1 cells express at their surface both the CD4 and CCR5 proteins, acting as receptor and co-receptor for HIV entry, respectively (Wei et al. 2002. Antimicrob. Agents Chemother. Vol. 46, p 1896-1905). This feature makes the cells very sensitive to infection by the virus. The TMZ-b1 cells were infected with equal amount of cell-free virus, corresponding to 10 ng of HIV p24 antigen. This amount is ten times lower than the amount used to infect the P4 cells.

[2] = test system: HIV-1 mutant Cys181RT in P4 cells; assay: Anti-HIV assay on P4 cells, Cys181RT mutant
From the text: (§4) In order to introduce mutation(s) at the level of the pol gene coding for the RT in the pNL4-3 plasmid containing the complete viral genome (Adachi et al., 1986. J. Virol., Vol. 59 p 284-291) we used the “Quick change mutagenesis kit” (Stratagene). The following mutations were separately introduced in pNL4-3: L100I, K103N, V108I, Y181C, Y188C, and the double mutations K103N/V108I. These mutations were chosen because of the resistance that they confer to existing NNRTI. The production procedure of the mutant viral stocks is identical to the one described above.
Anti-HIV activity and cytotoxicity of the compounds were tested on a P4 cell line. The P4 cell line (Clavel & Charneau, 1994. J. Virol., Vol. 68 p 1179-1185) was provided by Dr. François Clavel (Unité de recherche antivirale de l'hôpital Xavier Bichat Paris: Inserm). The P4 cells were cultured in complete DMEM medium supplemented with 10% fetal bovine serum (FBS), 0.5% of Penicillin/Streptomycin and G418 at 0.5 mg/ml. Exponentially growing cells were trypsinized, centrifuged and split twice weekly at 5.10^4 cells/ml.
The P4 cells are HIV-infectible Hela-CD4 cells that carry the bacterial lacZ gene under the control of the HIV-1 long terminal repeat (LTR). In this cell line, transcription of the LacZ gene is driven by the HIV-1 LTR. As such, the cytoplasmic accumulation of β-galactosidase is strictly dependent on the presence of the HIV transactivator Tat produced during the intracellular viral replication (Clavel & Charneau, 1994. J. Virol., Vol. 68, p. 1179-1185). In other words, in this system, the expression level of the β-galactosidase gene is proportional to the viral replication.
Briefly, in the anti-HIV assay 100 Ål of P4 cells were plated in 96-well plate at a concentration of 0.4 10^5 cells/ml and incubated at 37° C., 5% CO2. After 48 h, the medium was removed and 100 Ål of the different drugs dilutions were added to the cells. Four hours after the addition of the drugs all cells were infected with equal amount of cell-free virus, corresponding to 100 ng of HIV p24 antigen. After 48 h of incubation at 37° C., 5% CO2, β-galactosidase activity was measured using chlorophenol red-β-D-galactopyranoside assays.
The absorbance was measured on a Benchmark™ Microplate Reader (Biorad) (λ=570 nm) and compared with 12 cell control replicates (no virus or drug added) and 12 virus control wells (no drug added). Each assay was performed a minimum of three times. The 50% effective concentration (Ec50) was calculated from each dose response curve using the CurveExpert 1.3 software. As Nevirapine activity corresponds to its published values (10-100 nM), the data are consistent with other measures of viral replication.

[3] = test system: HIV-1 mutant Asn103RT in MT4 cells; assay: Anti-HIV assay on MT4 cells, Asn103RT mutant
From the text: as §4
(§5) Anti-HIV activity of the compounds was tested on MT-4 cell line. The MT-4 cell line (Larder et al. 1989. Sciences, Vol. 243 p 1731) was received from the NIH AIDS Research and Reference Reagent Program. These cells were cultured in RPMI medium supplemented with 10% fetal bovine serum (FBS), and 1% Penicillin/Streptomycin. The cultures were split regularly to keep cells densities between 0.3 to 1.2 10^6 cells/ml.
(§6) The MT-4 cells rapidly die upon infection by HIV. In this system there is an inverse correlation between cells survival and the amount of viral replication.
(§7) Briefly, in the anti-HIV assay exponentially growing MT-4 cells were infected with HIV-1. 100 μl of infected MT-4 cells were seeded in 96-well plate at a concentration of 0.4 10^5 cells/ml, and 100 μl of the different drugs dilutions were added to the cells. After 4 days of incubation at 37° C., 5% CO2, cells survival was measured using MTS (3-(4-5-dimethylthiazol-2-yl)-5-(−(3-carboxymethoxyphenyl)-2-(4-sulfophenyl)-2H-tetrazolium) assays. This compound is reduced by viable cells in a colored soluble formazan salt.
(§8) The absorbance was measured on a Benchmark™ Microplate Reader (Biorad) (λ=490 nm) and compared with 12 cell control replicates (nor virus nor drug added) and 12 virus control wells (no drug added). Each assay was performed a minimum of three times. The 50% effective concentration (EC50) was calculated from each dose response curve using the CurveExpert 1.3 software.

[4] = test system: HIV-1 mutant Asn103RT in TZM-bl cells; assay: Anti-HIV assay on TZM-bl cells, Asn103RT mutant; conditions: read-out: EC50 Asn103RT TZM-bl
From the text: as §4, §2, §3

[5] = test system: HIV-1 with WT (wild type) RT in MT4 cells; assay: Anti-HIV assay on MT4 cell line, WT RT
Description: as §1, §5, §6, §7, §8

[6] = test system: HIV-1 mutant Ile100RT in TZM-bl cells; assay: Anti-HIV assay on TZM-bl cells, Ile100RT mutant; conditions: read-out: EC50 Ile100RT TZM-bl
From the text: as §4, §2, §3

[7] = P4, mutant Cys181RT, read-out: EC50 Cys181RT P4
[8] = Human immunodeficiency virus 1, MT4, read-out: EC50 Asn103RT MT4
[9] = Human immunodeficiency virus 1, TZM-bl
[10] = Human immunodeficiency virus 1, read-out: EC50 Cys181RT P4

CCOC(=O)c1c(OC2CC(C)CC(C)C2)c(CC)c(C)[nH]c1=O (single isomer, unassigned) [Z37inv]
EC50 [1]: 439 nM
EC50 [2, 7]: 1970 nM

O=C1Nc2ccc(Cl)cc2[C@@](C#CC2CC2)(C(F)(F)F)O1 [Efavirenz, reference compound]
EC50 [3, 8]: 5 nM
EC50 ([1]; Human immunodeficiency virus 1): < 1 nM
EC50 [4, 9]: 35 nM
EC50 ([5]; Human immunodeficiency virus 1): < 1 nM
EC50 [2, 10]: < 1 nM
EC50 [6, 9]: 17 nM

Cc1ccnc2c1NC(=O)c1cccnc1N2C1CC1 [Nevirapine, reference compound]
EC50 [3, 8]: > 25000 nM
EC50 ([1]; Human immunodeficiency virus 1): 56 nM
EC50 [4, 9]: 2100 nM
EC50 ([5]; Human immunodeficiency virus 1): 575 nM
EC50 [2, 10]: 10000 nM
EC50 [6, 9]: 50 nM

CCc1c(C)[nH]c(=O)c(CO)c1OC1CC(C)CC(C)C1 (centres unmarked) [Z45inv]
EC50 [1]: 197 nM
EC50 [2, 7]: 496 nM
EC50 ([6]; TZM-bl, mutant Ile100RT): 382 nM

CCc1c(C)[nH]c(=O)c([N+](=O)[O-])c1OC1CC(C)CC(C)C1 (centres unmarked) [Z91inv, 3-nitro-5-ethyl-6-methyl-4-[(3,5-dimethylcyclohexyl)oxy]pyridine-2(1H)-one]
EC50 [3, 8]: 980 nM
EC50 ([1]; Human immunodeficiency virus 1): < 1 nM
EC50 [4, 9]: 355 nM
EC50 ([5]; Human immunodeficiency virus 1): < 1 nM
EC50 [2, 10]: 46 nM
EC50 [6, 9]: 2 nM

CCc1c(C)[nH]c(=O)c(CSC(C)=O)c1OC1CC(C)CC(C)C1 (centres unmarked) [Z114]
EC50 Asn103RT MT4 ([3]; MT4, mutant Asn103RT): inactive
EC50 [1]: 11 nM
EC50 ([4]; TZM-bl, mutant Asn103RT): 584 nM
EC50 [5]: 136 nM
EC50 [2, 7]: 87 nM
EC50 ([6]; TZM-bl, mutant Ile100RT): 77 nM

CCc1c(C)[nH]c(=O)c(N(C)C)c1OC1CC(C)CC(C)C1 (centres unmarked) [Z150, 3-(dimethylamino)-5-ethyl-6-methyl-4-[(3,5-dimethylcyclohexyl)oxy]pyridine-2(1H)-one]
EC50 [3, 8]: < 1 nM
EC50 ([1]; Human immunodeficiency virus 1): < 1 nM
EC50 [4, 9]: 11 nM
EC50 ([5]; Human immunodeficiency virus 1): < 1 nM
EC50 [2, 10]: 61 nM
EC50 [6, 9]: 20 nM

CCc1c(C)[nH]c(=O)c(CN=[N+]=[N-])c1OC1CC(C)CC(C)C1 (centres unmarked) [Z153]
EC50 ([3]; MT4, mutant Asn103RT, read-out: EC50 Asn103RT MT4): 150 nM
EC50 [1]: < 1 nM
EC50 ([4]; TZM-bl, mutant Asn103RT): 42 nM
EC50 [2, 7]: 108 nM
EC50 ([6]; TZM-bl, mutant Ile100RT): 29 nM

CCc1c(C)[nH]c(=O)c(C)c1OC1CC(C)CC(C)C1 (centres unmarked) [Z154]
EC50 [1]: 3 nM
EC50 ([4]; TZM-bl, mutant Asn103RT): 29 nM
EC50 [5]: < 1 nM
EC50 ([6]; TZM-bl, mutant Ile100RT): 40 nM
